# Columns and labels:
# [1] = system: CCRF-CEM; assay: Growth inhibition of human CCRF-CEM cells incubated for 48 hrs by sulforhodamine B assay; type: functional
# [2] = system: HL-60(TB); assay: Growth inhibition of human HL-60(TB) cells incubated for 48 hrs by sulforhodamine B assay; type: functional; conditions: HL-60, 48 h
# [3] = system: K562; assay: Growth inhibition of human K562 cells incubated for 48 hrs by sulforhodamine B assay; type: functional; conditions: K562, 48 h
# [4] = system: RPMI-8226; assay: Growth inhibition of human RPMI8226 cells incubated for 48 hrs by sulforhodamine B assay; type: functional; conditions: RPMI-8226, 48 h
# [5] = system: SR; assay: Growth inhibition of human SR cells incubated for 48 hrs by sulforhodamine B assay; type: functional
# [6] = system: HOP-62; assay: Growth inhibition of human HOP62 cells incubated for 48 hrs by sulforhodamine B assay; type: functional; conditions: HOP-62, 48 h
# [7] = system: HOP-92; assay: Growth inhibition of human HOP92 cells incubated for 48 hrs by sulforhodamine B assay; type: functional; conditions: HOP-92, 48 h
# [8] = system: NCI-H226; assay: Growth inhibition of human NCI-H226 cells incubated for 48 hrs by sulforhodamine B assay; type: functional; conditions: NCI-H226, 48 h
# [9] = system: NCI-H322M; assay: Growth inhibition of human NCI-H322M cells incubated for 48 hrs by sulforhodamine B assay; type: functional
# [10] = system: COLO 205; assay: Growth inhibition of human COLO205 cells incubated for 48 hrs by sulforhodamine B assay; type: functional; conditions: COLO 205, 48 h
# [11] = system: HCC 2998; assay: Growth inhibition of human HCC2998 cells incubated for 48 hrs by sulforhodamine B assay; type: functional; conditions: HCC 2998, 48 h
# [12] = system: HCT-116; assay: Growth inhibition of human HCT116 cells incubated for 48 hrs by sulforhodamine B assay; type: functional; conditions: HCT-116, 48 h
# [13] = system: HCT-15; assay: Growth inhibition of human HCT15 cells incubated for 48 hrs by sulforhodamine B assay; type: functional; conditions: HCT-15, 48 h
# [14] = system: HT-29; assay: Growth inhibition of human HT-29 cells incubated for 48 hrs by sulforhodamine B assay; type: functional; conditions: HT-29, 48 h
# [15] = system: SW-620; assay: Growth inhibition of human SW620 cells incubated for 48 hrs by sulforhodamine B assay; type: functional; conditions: SW-620, 48 h
# [16] = system: SF-268; assay: Growth inhibition of human SF268 cells incubated for 48 hrs by sulforhodamine B assay; type: functional; conditions: SF-268, 48 h
# [17] = system: SF-539; assay: Growth inhibition of human SF539 cells incubated for 48 hrs by sulforhodamine B assay; type: functional; conditions: SF-539, 48 h
# [18] = system: SNB-19; assay: Growth inhibition of human SNB19 cells incubated for 48 hrs by sulforhodamine B assay; type: functional; conditions: SNB-19, 48 h
# [19] = system: Malme-3M; assay: Growth inhibition of human MALME-3M cells incubated for 48 hrs by sulforhodamine B assay; type: functional
# [20] = system: M14; assay: Growth inhibition of human M14 cells incubated for 48 hrs by sulforhodamine B assay; type: functional; conditions: M14, 48 h
# [21] = system: SK-MEL-2; assay: Growth inhibition of human SK-MEL-2 cells incubated for 48 hrs by sulforhodamine B assay; type: functional; conditions: SK-MEL-2, 48 h
# [22] = system: SK-MEL-28; assay: Growth inhibition of human SK-MEL-28 cells incubated for 48 hrs by sulforhodamine B assay; type: functional; conditions: SK-MEL-28, 48 h
# [23] = system: UACC-62; assay: Growth inhibition of human UACC62 cells incubated for 48 hrs by sulforhodamine B assay; type: functional; conditions: UACC-62, 48 h
# [24] = system: IGROV-1; assay: Growth inhibition of human IGROV1 cells incubated for 48 hrs by sulforhodamine B assay; type: functional; conditions: IGROV-1, 48 h
# [25] = system: OVCAR-3; assay: Growth inhibition of human OVCAR3 cells incubated for 48 hrs by sulforhodamine B assay; type: functional; conditions: OVCAR-3, 48 h
# [26] = system: OVCAR-4; assay: Growth inhibition of human OVCAR4 cells incubated for 48 hrs by sulforhodamine B assay; type: functional; conditions: OVCAR-4, 48 h
# [27] = system: OVCAR-5; assay: Growth inhibition of human OVCAR5 cells incubated for 48 hrs by sulforhodamine B assay; type: functional; conditions: OVCAR-5, 48 h
# [28] = system: OVCAR-8; assay: Growth inhibition of human OVCAR8 cells incubated for 48 hrs by sulforhodamine B assay; type: functional; conditions: OVCAR-8, 48 h
# [29] = system: NCI/ADR-RES; assay: Growth inhibition of human NCI/ADR-RES cells incubated for 48 hrs by sulforhodamine B assay; type: functional
# [30] = system: SK-OV-3; assay: Growth inhibition of human SKOV3 cells incubated for 48 hrs by sulforhodamine B assay; type: functional; conditions: SK-OV-3, 48 h
# [31] = system: 786-0; assay: Growth inhibition of human 786-O cells incubated for 48 hrs by sulforhodamine B assay; type: functional; conditions: 786-0, 48 h
# [32] = system: ACHN; assay: Growth inhibition of human ACHN cells incubated for 48 hrs by sulforhodamine B assay; type: functional
# [33] = system: CAKI-1; assay: Growth inhibition of human Caki1 cells incubated for 48 hrs by sulforhodamine B assay; type: functional; conditions: CAKI-1, 48 h
# [34] = system: RXF 393; assay: Growth inhibition of human RXF393 cells incubated for 48 hrs by sulforhodamine B assay; type: functional; conditions: RXF 393, 48 h
# [35] = system: SN12C; assay: Growth inhibition of human SN12C cells incubated for 48 hrs by sulforhodamine B assay; type: functional
# [36] = system: TK-10; assay: Growth inhibition of human TK10 cells incubated for 48 hrs by sulforhodamine B assay; type: functional; conditions: TK-10, 48 h
# [37] = system: UO-31; assay: Growth inhibition of human UO31 cells incubated for 48 hrs by sulforhodamine B assay; type: functional; conditions: UO-31, 48 h
# [38] = system: PC-3; assay: Growth inhibition of human PC3 cells incubated for 48 hrs by sulforhodamine B assay; type: functional; conditions: PC-3, 48 h
# [39] = system: DU-145; assay: Growth inhibition of human DU145 cells incubated for 48 hrs by sulforhodamine B assay; type: functional; conditions: DU-145, 48 h
# [40] = system: MCF7; assay: Growth inhibition of human MCF7 cells incubated for 48 hrs by sulforhodamine B assay; type: functional; conditions: MCF7, 48 h
# [41] = system: Hs-578T; assay: Growth inhibition of human Hs 578T cells incubated for 48 hrs by sulforhodamine B assay; type: functional
# [42] = system: BT-549; assay: Growth inhibition of human BT549 cells incubated for 48 hrs by sulforhodamine B assay; type: functional; conditions: BT-549, 48 h
# [43] = system: MDA-MB-468; assay: Growth inhibition of human MDA-MB-468 cells incubated for 48 hrs by sulforhodamine B assay; type: functional; conditions: MDA-MB-468, 48 h
# [44] = system: WI-38; assay: Cytotoxicity against human WI38 cells assessed as reduction in cell viability after 24 hrs by MTT assay; type: cell-based; conditions: WI-38, 24 h
# [45] = system: WISH; assay: Cytotoxicity against human WISH cells assessed as reduction in cell viability after 24 hrs by MTT assay; type: cell-based
# [46] = Antioxidant activity assessed as superoxide dismutase-like activity by measuring inhibition of superoxide radical anion production at 2 uM by NBT reduction assay relative to control; type: functional
# [47] = system: Escherichia coli; assay: Induction of Escherichia coli genomic DNA cleavage after 1 hr by agarose gel electrophoresis method
# [48] = Growth inhibition of human NCI60 cells at 10 uM after 48 hrs by SRB assay relative to control; values are per cent of control; conditions: NCI60, 48 h
compound,measurement,setting,value
COc1ccc(-c2ccc(-c3ccc(C(=N)N)c(F)c3)s2)cc1,GI50,[1],3.11 µM
same,GI50,[2],2.19 µM
same,GI50,[3],2.66 µM
same,GI50,[4],2.51 µM
same,GI50,[5],3.17 µM
same,GI50,[6],10.4 µM
same,GI50,[7],1.38 µM
same,GI50,[8],14.4 µM
same,GI50,[9],3.58 µM
same,GI50,[10],1.78 µM
same,GI50,[11],1.85 µM
same,GI50,[12],3.04 µM
same,GI50,[13],2.58 µM
same,GI50,[14],2.79 µM
same,GI50,[15],1.92 µM
same,GI50,[16],4.85 µM
same,GI50,[17],8.96 µM
same,GI50,[18],9.44 µM
same,GI50,[19],2.15 µM
same,GI50,[20],1.9 µM
same,GI50,[21],2.41 µM
same,GI50,[22],2.31 µM
same,GI50,[23],1.82 µM
same,GI50,[24],4.38 µM
same,GI50,[25],9.77 µM
same,GI50,[26],6.42 µM
same,GI50,[27],4.98 µM
same,GI50,[28],8.22 µM
same,GI50,[29],10.1 µM
same,GI50,[30],9.21 µM
same,GI50,[31],3.93 µM
same,GI50,[32],4.24 µM
same,GI50,[33],3.94 µM
same,GI50,[34],4.68 µM
same,GI50,[35],5.97 µM
same,GI50,[36],4.33 µM
same,GI50,[37],3.17 µM
same,GI50,[38],4.05 µM
same,GI50,[39],6.25 µM
same,GI50,[40],2.08 µM
same,GI50,[41],4.82 µM
same,GI50,[42],5.9 µM
same,GI50,[43],1.39 µM
same,IC50,[44],104 µM
same,IC50,[45],112 µM
same,inhibition,[46],55%
same,Activity,[47],Dose-dependent effect
same,growth percent at 10 µM,[48],-80.5%
N=C(N)c1ccc(-c2ccc(-c3ccc(Cl)cc3)s2)cc1F,GI50,[1],0.194 µM
same,GI50,[2],0.212 µM
same,GI50,[3],0.272 µM
same,GI50,[4],0.248 µM
same,GI50,[5],0.218 µM
same,GI50,[6],1.48 µM
same,GI50,[7],0.589 µM
same,GI50,[8],2.03 µM
same,GI50,[9],0.386 µM
same,GI50,[10],0.2 µM
same,GI50,[11],0.156 µM
same,GI50,[12],0.171 µM
same,GI50,[13],0.172 µM
same,GI50,[14],0.203 µM
same,GI50,[15],0.186 µM
same,GI50,[16],0.197 µM
same,GI50,[17],0.206 µM
same,GI50,[18],0.341 µM
same,GI50,[19],0.49 µM
same,GI50,[20],0.179 µM
same,GI50,[21],1.5 µM
same,GI50,[22],0.205 µM
same,GI50,[23],0.218 µM
same,GI50,[24],0.611 µM
same,GI50,[25],0.268 µM
same,GI50,[26],0.224 µM
same,GI50,[27],0.248 µM
same,GI50,[28],0.983 µM
same,GI50,[29],0.361 µM
same,GI50,[30],1.14 µM
same,GI50,[31],0.192 µM
same,GI50,[32],0.203 µM
same,GI50,[33],0.173 µM
same,GI50,[34],0.187 µM
same,GI50,[35],0.517 µM
same,GI50,[36],1.74 µM
same,GI50,[37],1.72 µM
same,GI50,[38],0.394 µM
same,GI50,[39],0.43 µM
same,GI50,[40],0.168 µM
same,GI50,[41],0.726 µM
same,GI50,[42],1.5 µM
same,GI50,[43],0.215 µM
same,IC50,[44],53.1 µM
same,IC50,[45],64.2 µM
same,inhibition,[46],59%
same,Activity,[47],Dose-dependent effect
same,growth percent at 10 µM,[48],-67.3%
N=C(N)c1ccc(-c2ccc(-c3ccc(F)cc3)s2)cc1,GI50,[1],1.82 µM
same,GI50,[2],0.679 µM
same,GI50,[3],0.268 µM
same,GI50,[4],0.799 µM
same,GI50,[5],0.307 µM
same,GI50,[6],1.58 µM
same,GI50,[7],1.54 µM
same,GI50,[8],2.19 µM
same,GI50,[9],1.33 µM
same,GI50,[10],0.204 µM
same,GI50,[11],0.492 µM
same,GI50,[12],1.58 µM
same,GI50,[13],0.252 µM
same,GI50,[14],0.323 µM
same,GI50,[15],0.386 µM
same,GI50,[16],1.54 µM
same,GI50,[17],1.62 µM
same,GI50,[18],1.93 µM
same,GI50,[19],1.55 µM
same,GI50,[20],1.6 µM
same,GI50,[21],2.05 µM
same,GI50,[22],1.57 µM
same,GI50,[23],1.65 µM
same,GI50,[24],1.79 µM
same,GI50,[25],1.71 µM
same,GI50,[26],1.63 µM
same,GI50,[27],1.55 µM
same,GI50,[28],2.11 µM
same,GI50,[29],1.77 µM
same,GI50,[30],1.61 µM
same,GI50,[31],1.47 µM
same,GI50,[32],1.56 µM
same,GI50,[33],1.67 µM
same,GI50,[34],1.48 µM
same,GI50,[35],1.59 µM
same,GI50,[36],1.85 µM
same,GI50,[37],1.58 µM
same,GI50,[38],1.59 µM
same,GI50,[39],1.63 µM
same,GI50,[40],0.323 µM
same,GI50,[41],2.16 µM
same,GI50,[42],1.65 µM
same,GI50,[43],1.26 µM
same,IC50,[44],197 µM
same,IC50,[45],232 µM
same,inhibition,[46],59.6%
same,Activity,[47],Dose-dependent effect
same,growth percent at 10 µM,[48],-78.7%
